Results taken from patent publication US12448366B2, “Solid forms of pralsetinib” (Rigel Pharmaceuticals, Inc., priority 2020, dated 2025).
Values after ≈ are worked out from the molar mass of the structure shown. Like-named read-outs stand apart in the source and are kept apart here.

Experiments:
Format in all cases: physicochemical
[1] = Drying of free base solid forms (XRPD); conditions: for behaviour upon drying: XRPD
[2] = Co-milling co-crystal screening, XRPD; conditions: co-milling with freebase
Experimental: About 30 mg of Compound (I) freebase and 1.05 eq. of co-former were direct weighed into the milling capsule and manually mixed before the addition of 1 volume of solvent (MtBE, MeOAc, or EtOH). Each system was milled once for 30 seconds before solids were collected. Samples of the wet material were taken for XRPD of the ‘wet’ material before drying under active vacuum at 50° C. for 2 hours. Unique patterns were further exposed to 97% R.H. for 24 hours.

[3] = Co-melting co-crystal screening, XRPD; conditions: co-melting with pralsetinib freebase, 1.05 eq. co-former
Experimental: The resulting powder was packed into a 100 μL DSC pan and heated at a rate of 10° C./min to 10° C. above the melting temperature of the lowest melting component. The experiment was isothermally held for 5 min before cooling to room temperature at a rate of 10° C./min. Samples were then taken for XRPD.

[4] = Dynamic vapor sorption (DVS); conditions: for DVS Mass Change: glutarate and succinate: between 2% and 90% relative humidity
Experimental: Dynamic Vapor Sorption (DVS) was done using a DVS Intrinsic 1. The sample is loaded into a sample pan and suspended from a microbalance. A typical sample mass for DVS measurement is 25 mg. Nitrogen gas bubbled through distilled water provides the desired relative humidity. A typical measurement comprises the steps: • 1—Equilibrate at 50% RH • 2—50% to 2%. (50%, 40%, 30%, 20%, 10% and 2%) • a. Hold minimum of 5 mins and maximum of 60 minutes at each humidity. The pass criteria is less than 0.002% change • 3—2% to 95% (2%, 10%, 20%, 30%, 40%, 50%, 60%, 70%, 80%, 90%, 95%) • a. Hold minimum of 5 mins and maximum of 60 minutes at each humidity. The pass criteria is less than 0.002% change • 4—95% to 2% (95%, 80%, 70%, 60%, 50%, 40%, 30%, 20%, 10%, 2%) • a. Hold minimum of 5 mins and maximum of 60 minutes at each humidity. The pass criteria is less than 0.002% change • 5—2% to 50% (2%, 10%, 20%, 30%, 40%, 50%) • a. Hold minimum of 5 mins and maximum of 60 minutes at each humidity. The pass criteria is less than 0.002% change High Pressure Liquid Chromatography (HPLC)
Dynamic Vapor Sorption (DVS) was performed using a DVS Intrinsic 1. The samples (12-31 mg) was loaded into a sample pan, suspended from a microbalance and exposed to a humidified stream of nitrogen gas. The sample was held for a minimum of 5 min at each level and only progressed to the next humidity level if there was <0.002% change in weight between measurements (interval: 60 seconds) or 240 min had elapsed. The following program was used: • 1—Equilibration at 50% RH • 2—50% to 2%. (50%, 40%, 30%, 20%, 10% and 2%) • 3—2% to 95% (2%, 10%, 20%, 30%, 40%, 50%, 60%, 70%, 80%, 90%, 95%) • 4—95% to 2% (95%, 80%, 70%, 60%, 50%, 40%, 30%, 20%, 10%, 2%) • 5—2% to 50% (2%, 10%, 20%, 30%, 40%, 50%) High Performance Liquid Chromatography (HPLC)

[5] = Humidity exposure, 75% relative humidity at 40° C. for one week, XRPD; conditions: for stability on exposure to 75% relative humidity at 40° C.: one week / 7 days, XRPD
[6] = Solubility in water and simulated fluids (fasted/fed state simulated intestinal fluid, fasted state simulated gastric fluid); conditions: for solubility: thermodynamic from solid
[7] = One week (7 days) slurry stability by XRPD and HPLC; conditions: for stability slurrying 7 days in EtOAc / stability slurrying 7 days in EtOH / stability slurrying 7 days in EtOH:water (95:5 vol): XRPD and HPLC
[8] = Salt screening: XRPD of wet cake, after drying under vacuum at 50° C., after exposure to 97% relative humidity; conditions: XRPD; for stability of salt solid form to humidification: 97% (>95%) relative humidity; for stability of salt solid form to drying: vacuum at 50° C.
Experimental: Stock solutions of counter-ion were prepared in EtOH, MeOH, or EtOAc, depending on solubility. […] The solvent was allowed to evaporate at room temperature over the weekend and then placed at 50° C. under vacuum for 3 hours to remove any remaining solvent. Approximately 25 volumes solvent (0.6 mL) was added to each vial for screening. The three solvents selected were EtOH, EtOAc, and IPA:water (9:1 vol). […] XRPD analysis was done in three stages. XRPD of the wet cake was done for all samples. Unique solids were then left on XRPD plates and dried under vacuum at 50° C. XRPD of unique dry solids was then done. […] The humid environment was generated by placing a beaker of saturated potassium sulfate in water in a sealed container. All XRPD patterns were compared to counter ion XRPD patterns and known free base patterns. Where solids were not of sufficient quantity to isolate, the solvent was evaporated at room temperature, the material dried at 50° C. under active vacuum for 3 hours, and then reslurried at room temperature in either MtBE or IPAc overnight after heating to 45° C. for 30 minutes.

CO[C@]1(C(=O)N[C@@H](C)c2ccc(-n3cc(F)cn3)nc2)CC[C@H](c2nc(C)cc(Nc3cc(C)[nH]n3)n2)CC1 [Solid Form I, pralsetinib]
behaviour upon drying ([1]; listed as Pattern I): lost crystallinity

CO[C@]1(C(=O)N[C@@H](C)c2ccc(-n3cc(F)cn3)nc2)CC[C@H](c2nc(C)cc(Nc3cc(C)[nH]n3)n2)CC1 [Solid Form D, pralsetinib]
behaviour sitting in atmosphere [1]: converted to other solid forms | behaviour upon drying [1]: converted to solid form B

CO[C@]1(C(=O)N[C@@H](C)c2ccc(-n3cc(F)cn3)nc2)CC[C@H](c2nc(C)cc(Nc3cc(C)[nH]n3)n2)CC1 [Solid Form K, pralsetinib]
behaviour upon drying [1]: unstable on drying and converted to material characterized by XRPD Pattern M

CO[C@]1(C(=O)N[C@@H](C)c2ccc(-n3cc(F)cn3)nc2)CC[C@H](c2nc(C)cc(Nc3cc(C)[nH]n3)n2)CC1 [Solid Form J, pralsetinib]
behaviour upon drying [1]: unstable and quickly converted to amorphous | behaviour upon drying ([1]; listed as Pattern J): either lost crystallinity or became amorphous

Nc1ccc(C(=O)O)cc1 [4-Aminobenzoic Acid]
Wet (XRPD) ([2]; solvent EtOH): FB-C | Wet (XRPD) ([2]; solvent MtBE, MeOAc): FB-C + 4-Aminobenzoic

O=C(O)c1ccccc1 [Benzoic Acid]
Wet (XRPD) ([2]; solvent MtBE, MeOAc, EtOH): FB-C | Dry (XRPD) [3]: Am.

COc1cc(C(=O)O)ccc1O [Vanillic Acid]
Wet (XRPD) ([2]; solvent EtOH): FB-C | Wet (XRPD) ([2]; solvent MtBE, MeOAc): FB-C + vanillic acid | Dry (XRPD) [3]: Am.

O=C(O)c1cc(O)ccc1O [Gentisic Acid]
Wet (XRPD) ([2]; solvent MtBE, MeOAc, EtOH): FB-C | Dry (XRPD) [3]: Am.

O=C1NS(=O)(=O)c2ccccc21 [Saccharin]
Wet (XRPD) ([2]; solvent EtOH): Am. + 1 peak | Wet (XRPD) ([2]; solvent MeOAc): Am. + trace FB-C | Wet (XRPD) ([2]; solvent MtBE): FB-C + saccharin | Dry (XRPD) [3]: Am.

CO[C@]1(C(=O)N[C@@H](C)c2ccc(-n3cc(F)cn3)nc2)CC[C@H](c2nc(C)cc(Nc3cc(C)[nH]n3)n2)CC1 [Solid Form 15-A, pralsetinib]
mass change by DVS ([4]; between 2% and 90% relative humidity, listed as solid form 15-A): 3.4 wt. % | mass change by DVS ([4]; between 15% and 75% relative humidity, listed as solid form 15-A): 1.9 wt. % | DVS Mass Change ([4]; listed as Succinate 15-A): 3.40 wt. % | reversibility of the DVS mass change ([4]; listed as solid form 15-A): appears to be reversible | stability on exposure to 75% relative humidity at 40° C. ([5]; listed as Solid form 15-A): converted to Pattern 15-A+B | solubility in simulated gastric fluid [6]: high solubility | residual solid after solubility test ([6]; fasted state simulated gastric fluid, listed as solid form 15-A): solid form 15-D | Solubility in fasted state simulated gastric fluid ([6]; listed as solid form 15-A): 1120 µg/mL (≈ 2100 µM) | Solubility in fasted state simulated intestinal fluid ([6]; listed as solid form 15-A): 20 µg/mL (≈ 37.5 µM) | Solubility in fed state simulated intestinal fluid ([6]; listed as solid form 15-A): 840 µg/mL (≈ 1570 µM) | Solubility in water ([6]; listed as solid form 15-A): 450 µg/mL (≈ 843 µM) | stability slurrying 7 days in EtOAc ([7]; listed as Solid form 15-A): stable | stability slurrying 7 days in EtOH ([7]; listed as Solid form 15-A): stable | reduction in purity after 7 days slurry ([7]; EtOH:water (95:5 vol) slurry): 0.13% | stability slurrying 7 days in EtOH:water (95:5 vol) ([7]; listed as Solid form 15-A): converted to Pattern 15-C | stability of salt solid form to humidification ([8]; listed as Pattern 15-A): stable | stability of salt solid form to humidification ([8]; listed as succinate 15-A): stable | stability of salt solid form to drying ([8]; listed as succinate 15-A): stable

CO[C@]1(C(=O)N[C@@H](C)c2ccc(-n3cc(F)cn3)nc2)CC[C@H](c2nc(C)cc(Nc3cc(C)[nH]n3)n2)CC1 [Solid Form P, pralsetinib]
behaviour upon drying [1]: unstable upon drying and converted to a mixture of material characterized by XRPD Pattern P and XRPD Pattern L and extra peaks

O.O.O=c1c(O)c(-c2ccc(O)c(O)c2)oc2cc(O)cc(O)c12 [Quercetin Dihydrate]
Wet (XRPD) ([2]; solvent MtBE, MeOAc, EtOH): FB-C + quercetin | Dry (XRPD) [3]: Am.

CO[C@]1(C(=O)N[C@@H](C)c2ccc(-n3cc(F)cn3)nc2)CC[C@H](c2nc(C)cc(Nc3cc(C)[nH]n3)n2)CC1 [Solid Form 14-A, pralsetinib]
hysteresis in the DVS plot [4]: minimal hysteresis | mass change by DVS ([4]; between 2% and 90% relative humidity, listed as solid form 14-A): 0.94 wt. % | mass change by DVS ([4]; between 15% and 75% relative humidity, listed as solid form 14-A): 0.86 wt. % | DVS Mass Change ([4]; listed as Phosphate 14-A): 0.94 wt. % | reversibility of the DVS mass change ([4]; listed as solid form 14-A): appears to be reversible | Stability 40° C./75% RH ([5]; XRPD pattern after exposure, listed as Phosphate 14-A): Stable | stability on exposure to 75% relative humidity at 40° C. ([5]; listed as solid form 14-A): stable | solubility ([6]; fasted state simulated gastric fluid, fassgf or other biorelevant, read-out: Solubility in fasted state simulated gastric fluid): 1760 µg/mL (≈ 3300 µM) | residual solid after solubility test ([6]; fasted state simulated gastric fluid, listed as solid form 14-A): amorphous | residual solid after solubility test ([6]; fasted state simulated intestinal fluid): pralsetinib freebase solid form A | residual solid after solubility test ([6]; fed state simulated intestinal fluid): amorphous | solubility ([6]; fed state simulated intestinal fluid, fessif, read-out: Solubility in fed state simulated intestinal fluid): 490 µg/mL (≈ 918 µM) | Solubility in fasted state simulated intestinal fluid ([6]; listed as solid form 14-A): 200 µg/mL (≈ 375 µM) | Solubility in water ([6]; listed as solid form 14-A): 1700 µg/mL (≈ 3190 µM) | solubility in water ([6]; listed as solid form 14-A): high solubility | residual solid after solubility test ([6]; water): XRPD Pattern 14-A | Stability 7-day slurry [7]: Stable | stability slurrying 7 days in EtOAc ([7]; listed as solid form 14-A): stable | stability slurrying 7 days in EtOH ([7]; listed as solid form 14-A): stable | stability slurrying 7 days in EtOH:water (95:5 vol) ([7]; listed as solid form 14-A): stable | reduction (HPLC purity) after 7 days slurry ([7]; materials isolated from EtOAc): 0.07% | stability of salt solid form to humidification ([8]; listed as Pattern 14-A): stable | stability of salt solid form to humidification ([8]; listed as phosphate 14-A): stable | stability of salt solid form to humidification ([8]; listed as solid form 14-A): stable | stability of salt solid form to drying ([8]; listed as Pattern 14-A): stable | stability of salt solid form to drying ([8]; listed as phosphate 14-A): stable | stability of salt solid form to drying ([8]; listed as solid form 14-A): stable

CO[C@]1(C(=O)N[C@@H](C)c2ccc(-n3cc(F)cn3)nc2)CC[C@H](c2nc(C)cc(Nc3cc(C)[nH]n3)n2)CC1 [Solid Form Q, pralsetinib]
behaviour upon drying [1]: lost crystallinity

CO[C@]1(C(=O)N[C@@H](C)c2ccc(-n3cc(F)cn3)nc2)CC[C@H](c2nc(C)cc(Nc3cc(C)[nH]n3)n2)CC1 [Solid Form L, pralsetinib]
behaviour upon drying ([1]; listed as Pattern L): stable

Urea
Wet (XRPD) ([2]; solvent EtOH): 16-B + FB-C | Humidity (XRPD) ([2]; solvent EtOH, 97% R.H. for 24 hours): 16-B + FB-C | Wet (XRPD) ([2]; solvent MtBE, MeOAc): FB-C + urea | Dry (XRPD) [3]: FB-A +

O=C(O)c1ccc(O)cc1 [4-Hydroxybenzoic Acid]
Wet (XRPD) ([2]; solvent MtBE, MeOAc, EtOH): FB-C | Dry (XRPD) [3]: Am.
